Experimental data published in publication PMC11821258 (Molecules, 2025).

Legend:
[1] = system: human colon cancer HCT116 cells; experiment: Antiproliferative activity, SRB assay, 72 h; type: cell-based; details: for IC50: Homo sapiens, HCT-116, HCT116, 72 h, SRB, read-out: IC50; for SI: IC50 MCF-10A / IC50 HCT116
Description: (§1) The tested compounds were dissolved in DMSO (dimethyl sulfoxide) to a concentration of 10 mg/mL and then were diluted in the culture medium to reach the final concentrations. The cells were plated in 384-well plates at a density of 1 × 10^3 or 2 × 10^3 (MCF-10A) cells per well (Greiner Bio One, Kremsmünster, Austria) and in 96-well plates (MV4-11 cell; Sarstedt, Nümbrecht, Germany) at a density of 5 × 10^3 cells per well. After 24 h of incubation, the tested compounds were added at concentrations in the range of 100–0.03 µg/mL and, after the next 72 h of exposure to tested agents, the cytotoxic effect of all agents was examined using the MTT (MV4-11) or SRB assay, described previously. The values of IC50 (inhibitory concentration 50%) were calculated separately for each experiment (repeated 3–5 times) using the Prolab-3 system which is based on Cheburator 0.4 software. Doxorubicin was applied as a reference drug. The IC50 values in µg/mL were calculated to µM.
(§2) The cytotoxicity assay was performed after the cultured cells were exposed to the tested agents for 72 h using the authomatic Washer dyspenser EL406, BioTek. At the first step, the washer dispenser collected 40 µL of cultured medium from each wells, and then the cells were fixed by gently layering 20 µL per well of cold 25% trichloroacetic acid to each well. The incubation time was 40 min and then the plates were washed with tap water. The cells were stained with 20 µL per well of 0.1% sulforhodamine B (SRB, Merck, Darmstadt, Germany) for 30 min. Unbound sulforhodamine B was removed by washing it with 1% acetic acid. The protein-bound dye was extracted in 30 min using 70 µL per well of 10 mM unbuffered Tris base (Merck, Darmstadt, Germany). The absorbance (at 540 nm) was measured on a Synergy H4 photometer (BioTek Instruments, Winooski, VT, USA). The absorbance of the wells without the cells was the background.

[2] = system: human melanoma Hs294T cells; experiment: Antiproliferative activity, SRB assay, 72 h; type: cell-based; details: for IC50: Homo sapiens, Hs 294T, Hs249T (so in the source), 72 h, SRB, read-out: IC50; for SI: IC50 MCF-10A / IC50 Hs249T (so in the source)
Description: as §1, §2

[3] = system: human lung carcinoma A549; experiment: Antiproliferative activity, SRB assay, 72 h; type: cell-based; details: for IC50: Homo sapiens, A549, 72 h, SRB, read-out: IC50; for SI: IC50 MCF-10A / IC50 A549
Description: as §1, §2

[4] = system: human prostate adenocarcinoma PC-3; experiment: Antiproliferative activity, SRB assay, 72 h; type: cell-based; details: for IC50: Homo sapiens, PC-3, 72 h, SRB, read-out: IC50; for SI: IC50 MCF-10A / IC50 PC-3
Description: as §1, §2

[5] = system: human pancreas cancer MiaPaca-2 cells; experiment: Antiproliferative activity, SRB assay, 72 h; type: cell-based; details: for IC50: Homo sapiens, MIA PaCa-2, MiaPaca-1 (so in the source), 72 h, SRB, read-out: IC50; for SI: IC50 MCF-10A / IC50 MiaPaca-1 (so in the source)
Description: as §1, §2

[6] = system: human breast cancer MCF-7; experiment: Antiproliferative activity, SRB assay, 72 h; type: cell-based; details: for IC50: Homo sapiens, MCF7, MCF-7, 72 h, SRB, read-out: IC50; for SI: IC50 MCF-10A / IC50 MCF-7
Description: as §1, §2

[7] = system: human normal epithelial cells from the mammary gland (MCF-10A); experiment: Cytotoxicity on non-tumorigenic cells, SRB assay, 72 h; type: cell-based; details: Homo sapiens, MCF-10A normal cells, SRB, read-out: IC50
Description: as §1, §2

MV4-11 cells [8] = experiment: Cell cycle analysis by flow cytometry (propidium iodide); type: cell-based, human; details: for number of cells in the G2/M phase / number of cells in the G2/M and S phases: about 1.5 × IC50, statistically significant; for number of death cells / number of cells in the G2/M and S phases: MV4-11, 72 h
Description: After incubation, the cells were collected and counted with a hemocytometer, and the 5×10^5 cells were washed twice in cold PBS (phosphate-buffered saline) and fixed for 24 h in 70% ethanol at −20 °C. Then, the cells were washed twice in PBS and incubated with 0.5 mL of RNAse (8 μg/mL, Thermo Fisher, Waltham, MA, USA) at 37 °C for 1 h. The cells were stained for 30 min with propidium iodide (final concentration: 50 μg/mL, Merck, Darmstadt, Germany) at 4 °C and the cellular DNA content was analyzed by conducting flow cytometry using a BD LSRFortessa cytometer (BD Bioscience, San Jose, CA, USA). Compounds at each concentration were tested at least three times independently. The obtained results were analyzed using Flowing software 2.5.1 (Cell Imaging Core, Turku Centre for Biotechnology, University of Turku and Åbo Akademi University, Finland).

[9] = system: tested cell lines (MV4-11, A549, MCF-7, PC-3, HCT116, MiaPaca-2, Hs294T); experiment: Antiproliferative activity, range over the tested cell lines; type: cell-based; details: Homo sapiens; range across cell lines, 72 h
Description: as §1, with “The values of IC50 (inhibitory concentration 50%) were calculated separately for each experiment (repeated 3–5 times) using the Prolab-3 system which is based on Cheburator 0.4 software. Doxorubicin was applied as a reference drug.” left out
This assay was used against MV4-11 leukemia cells and was performed after 72 h of exposure of the tested agents to the cells. […] After the next 24 h, the absorbance of the samples was measured at a 570 nm wavelength on a Synergy H4 photometer (BioTek Instruments, Winooski, VT, USA). The absorbance of wells without the cells was the background.
The cytotoxicity assay was performed after the cultured cells were exposed to the tested agents for 72 h using the authomatic Washer dyspenser EL406, BioTek. […] The absorbance (at 540 nm) was measured on a Synergy H4 photometer (BioTek Instruments, Winooski, VT, USA). […]

[10] = system: human biphenotypic B myelomonocytic leukemia MV4-11; experiment: Antiproliferative activity, MTT assay, 72 h; type: cell-based; details: for IC50: Homo sapiens, MV4-11, 72 h, MTT, read-out: IC50; for SI: IC50 MCF-10A / IC50 MV4-11
Description: as §1
This assay was used against MV4-11 leukemia cells and was performed after 72 h of exposure of the tested agents to the cells. For each well, 20 µL of the MTT [3-(4,5-dimethylthiazol-2-yl)-2,5-diphenyl tetrazolium bromide] solution (5 mg/mL, Merck, Darmstadt, Germany) was added. After the incubation time (4 h at 37 °C), 80 µL of the lysing buffer was added to each well (mixture of 225 mL of DMF (dimethylformamide) Avantor, Poland; 67.5 g of SDS, Merck, Darmstadt, Germany; and 275 mL of distilled water). After the next 24 h, the absorbance of the samples was measured at a 570 nm wavelength on a Synergy H4 photometer (BioTek Instruments, Winooski, VT, USA). The absorbance of wells without the cells was the background.

MV4-11 cells [11] = experiment: Apoptosis determination via Annexin V and PI staining; type: cell-based, human; details: MV4-11, 72 h; for induction of apoptosis: higher concentrations
Description: Camptothecin at a concentration of 0.05 uM was used as a positive control. After incubation, the cells were collected and counted with a hemocytometer, and 1×10^5 cells were washed twice with PBS. APC-Annexin V (Becton Dickinson, Pharmingen, Franklin Lakes, NJ, USA) was dissolved to the concentration of […] in a binding buffer (10 mM HEPES/NaOH, pH 7.4; 150 mM NaCl; 5 mM KCl; 1 mM MgCl2; and 1.8 mM CaCl2) (HIIET, Wrocław, Poland), and the cells were suspended in 200 µL of this solution. After 15 min of the incubation in the dark at room temperature, 20 µL of propidium iodide (PI) solution (0.02 mg/mL) was added. Data acquisition was performed by conducting flow cytometry using a BD LSRFortessa cytometer (BD Bioscience, San Jose, CA, USA). The compounds were tested at least three times independently. Results were analyzed using Flowing software 2.5.1 (Turku, Finland). […] Double-negative cells were live cells, PI+/Annexin V+ were late apoptotic cells, PI-/Annexin V+ were early apoptotic cells, and PI+/Annexin V- were necrotic cells.

Structure (SMILES)	IC50 [1] [µM]	IC50 [2] [µM]	SI [2]	IC50 [3] [µM]	SI [3]	IC50 [4] [µM]	IC50 [5] [µM]	SI [5]	IC50 [6] [µM]	IC50 [7] [µM]	number of cells in the G2/M phase (MV4-11 cells [8]; MV4-11, 24 h)	IC50 [9] [µM]	IC50 [10] [µM]	SI [1]	SI [4]	SI [6]	induction of apoptosis (MV4-11 cells [11])	SI [10]	number of death cells (MV4-11 cells [8]; about 1.5 × IC50)	number of cells in the G2/M and S phases (MV4-11 cells [8])	also measured
C=C(C)[C@@H]1CC[C@]2(CO)CC[C@]3(C)[C@H](CC[C@@H]4[C@@]5(C)CC[C@H](O)C(C)(C)[C@@H]5CC[C@]43C)[C@@H]12 [B, betulin, reference compound]	37.7 ± 7.45	58.5 ± 15.6	1.68	14 ± 1.13	7.03	51.5 ± 9.94	144 ± 22.1	0.68	43.6 ± 15.8	98.48 ± 0.9	lowered	14 to 144	32.8 ± 12.9								number of cells in the S and G0/G1 phases (MV4-11 cells [8]; MV4-11, 24 h, about 1.5 × IC50): lowered
C=C(C)[C@@H]1CC[C@]2(CO)CC[C@]3(C)C(CCC4[C@@]5(C)CC[C@H](OC(=O)CC(C)(C)CC(=O)O)C(C)(C)C5CC[C@]43C)C12 (some centres unmarked) [Compound 4]	11.1 ± 2.56	24.4 ± 8.89	1.29	3.76 ± 2.05	8.36	19.2 ± 3.76	22.6 ± 6.5	1.39	12.1 ± 3.08	31.5 ± 1.71		3.76 to 24.4	4.77 ± 0.44	2.83	1.64	2.60	induction of apoptosis was observed	6.60			
C#CCCC(=O)OC[C@]12CC[C@@H](C(=C)C)C1C1CCC3[C@@]4(C)CC[C@H](OC(=O)CC(C)(C)CC(=O)O)C(C)(C)C4CC[C@@]3(C)[C@]1(C)CC2 (some centres unmarked) [Compound 4b]	7.82 ± 2.86	10.7 ± 1.5	3.06	4.06 ± 1.05	8.04	11.6 ± 4.51	24.5 ± 2.56	1.33	11.7 ± 2.41	32.6 ± 2.41			3.19 ± 1.29	4.17	2.82	2.78	induction of apoptosis was observed	10.20	increased	decreased	
C#CCCC(=O)OC[C@]12CC[C@@H](C(=C)C)C1C1CCC3[C@@]4(C)CC[C@H](OC(=O)CC(C)(C)C(=O)O)C(C)(C)C4CC[C@@]3(C)[C@]1(C)CC2 (some centres unmarked) [Compound 5b]	9.06 ± 2.92	16.1 ± 4.76	2.10	4.15 ± 0.92	8.15	21.1 ± 1.54	28.4 ± 3.23	1.19	12.3 ± 2.92	33.8 ± 3.38	lowered		4.76 ± 0.92	3.73	1.61	2.75	induction of apoptosis was observed	7.10	increased	decreased	number of necrotic cells (MV4-11 cells [11]): increased the number of necrotic cells
C#CC(=O)OC[C@]12CC[C@@H](C(=C)C)C1C1CCC3[C@@]4(C)CC[C@H](OC(=O)CCC(=O)O)C(C)(C)C4CC[C@@]3(C)[C@]1(C)CC2 (some centres unmarked) [Compound 6a]	20.7 ± 9.08	3.53 ± 0.67	14	12.9 ± 0.67	3.82	0.41 ± 0.08	18.5 ± 9.75	2.67	16 ± 1.01	49.4 ± 17.8			2.57 ± 1.01	2.39	121	3.09	induction of apoptosis was observed		increased	decreased	
